# According to patent US9040528B2, “Chemical compounds 542” (AstraZeneca AB, priority 2008, dated 2015):
# Molecular target: Escherichia coli DNA gyrase A/B tetramer (Escherichia coli (strain K12), UniProt P0AES4+P0AES6)
# Assay: DNA gyrase supercoiling activity fluorescence polarisation assay
# Type: biochemical
# Conditions: not given
# Outline: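 Supercoiling reactions quenched with 40 nM 5′-BODIPY-FL triplex-forming oligonucleotide probe in pH 3.5 NaCl/sodium acetate buffer; after 60 min, fluorescence anisotropy read (ex 485/em 535 nm). IC50 by nonlinear regression, normalised to 0.8% DMSO (100% activity) and 5 μM ciprofloxacin (0% activity).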
row,Compound,IC50
1,"Cc1noc2c(F)c3c(cc12)CC1(C(=O)NC(=O)NC1=O)[C@H]1[C@H](C)C[C@H](C)CN31 (relative stereo) [Example 77, (2S,4R,4aR)-rel-11-fluoro-2,4,8-trimethyl-1,2,3,4,4a,6-hexahydro-1′H-spiro[isoxazolo[4,5-g]pyrido[1,2-a]quinoline-5,5′-pyrimidine]-2′,4′,6′(3′H)-trione]",300 nM

# Same assay, conditions: 5 nM enzyme, relaxed plasmid, 0.3 mM ATP, ambient temperature; read-out: E. coli DNA gyrase supercoiling IC50
row,Compound,IC50
1,"Cc1ncn(-c2noc3c(F)c4c(cc23)CC2(C(=O)NC(=O)NC2=O)[C@H]2[C@H](C)O[C@H](C)CN42)n1 (relative stereo) [Example 54, (2R,4S,4aS)-rel-11-fluoro-2,4-dimethyl-8-(3-methyl-1H-1,2,4-triazol-1-yl)-1,2,4,4a-tetrahydro-2′H,6H-spiro[1,4-oxazino[4,3-a][1,2]oxazolo[4,5-g]quinoline-5,5′-pyrimidine]-2′,4′,6′(1′H,3′H)-trione]",2000 nM
2,"C[C@@H]1CN2c3c(cc4c(-n5cnc(C#N)n5)noc4c3F)CC3(C(=O)NC(=O)NC3=O)[C@H]2[C@H](C)O1 (relative stereo) [Example 55, 1-[(2R,4S,4aS)-rel-11-fluoro-2,4-dimethyl-2′,4′,6′-trioxo-1,1′,2,3′,4,4′,4a,6′-octahydro-2′H,6H-spiro[1,4-oxazino[4,3-a][1,2]oxazolo[4,5-g]quinoline-5,5′-pyrimidin]-8-yl]-1H-1,2,4-triazole-3-carbonitrile]",2600 nM
3,"C[C@@H]1CN2c3c(cc4c(-n5ccnn5)noc4c3F)CC3(C(=O)NC(=O)NC3=O)[C@H]2[C@H](C)O1 (relative stereo) [Example 57, (2R,4S,4aS)-rel-11-fluoro-2,4-dimethyl-8-(1H-1,2,3-triazol-1-yl)-1,2,4,4a-tetrahydro-2′H,6H-spiro[1,4-oxazino[4,3-a][1,2]oxazolo[4,5-g]quinoline-5,5′-pyrimidine]-2′,4′,6′(1′H,3′H)-trione]",1500 nM
4,"C[C@@H]1CN2c3c(cc4c(-n5ccnc5)noc4c3F)CC3(C(=O)NC(=O)NC3=O)[C@H]2[C@H](C)O1 (relative stereo) [Example 58, (2R,4S,4aS)-rel-11-fluoro-8-(1H-imidazol-1-yl)-2,4-dimethyl-1,2,4,4a-tetrahydro-2′H,6H-spiro[1,4-oxazino[4,3-a][1,2]oxazolo[4,5-g]quinoline-5,5′-pyrimidine]-2′,4′,6′(1′H,3′H)-trione]",500 nM
5,"C[C@@H]1CN2c3c(cc4c(-n5cnc(C(F)(F)F)c5)noc4c3F)CC3(C(=O)NC(=O)NC3=O)[C@H]2[C@H](C)O1 (relative stereo) [Example 59, (2R,4S,4aS)-rel-11-fluoro-2,4-dimethyl-8-[4-(trifluoromethyl)-1H-imidazol-1-yl]-1,2,4,4a-tetrahydro-2′H,6H-spiro[1,4-oxazino[4,3-a][1,2]oxazolo[4,5-g]quinoline-5,5′-pyrimidine]-2′,4′,6′(1′H,3′H)-trione]",6600 nM
6,"Cc1cnn(-c2noc3c(F)c4c(cc23)CC2(C(=O)NC(=O)NC2=O)[C@H]2[C@H](C)O[C@H](C)CN42)c1 (relative stereo) [Example 60, (2R,4S,4aS)-rel-11-fluoro-2,4-dimethyl-8-(4-methyl-1H-pyrazol-1-yl)-1,2,4,4a-tetrahydro-2′H,6H-spiro[1,4-oxazino[4,3-a][1,2]oxazolo[4,5-g]quinoline-5,5′-pyrimidine]-2′,4′,6′(1′H,3′H)-trione]",1200 nM
7,"C[C@@H]1CN2c3c(cc4c(-n5cc(Cl)cn5)noc4c3F)CC3(C(=O)NC(=O)NC3=O)[C@H]2[C@H](C)O1 (relative stereo) [Example 61, (2R,4S,4aS)-rel-8-(4-chloro-1H-pyrazol-1-yl)-11-fluoro-2,4-dimethyl-1,2,4,4a-tetrahydro-2′H,6H-spiro[1,4-oxazino[4,3-a][1,2]oxazolo[4,5-g]quinoline-5,5′-pyrimidine]-2′,4′,6′(1′H,3′H)-trione]",9300 nM
8,"CSc1noc2c(F)c3c(cc12)CC1(C(=O)NC(=O)NC1=O)[C@H]1[C@H](C)O[C@H](C)CN31 (relative stereo) [Example 62, (2R,4S,4aS)-rel-11-fluoro-2,4-dimethyl-8-(methylsulfanyl)-1,2,4,4a-tetrahydro-2′H,6H-spiro[1,4-oxazino[4,3-a][1,2]oxazolo[4,5-g]quinoline-5,5′-pyrimidine]-2′,4′,6′(1′H,3′H)-trione]",900 nM
9,"Cc1cc(C)n(-c2noc3c(F)c4c(cc23)CC2(C(=O)NC(=O)NC2=O)[C@H]2[C@H](C)O[C@H](C)CN42)n1 (relative stereo) [Example 63, (2R,4S,4aS)-rel-8-(3,5-dimethyl-1H-pyrazol-1-yl)-11-fluoro-2,4-dimethyl-1,2,4,4a-tetrahydro-2′H,6H-spiro[1,4-oxazino[4,3-a][1,2]oxazolo[4,5-g]quinoline-5,5′-pyrimidine]-2′,4′,6′(1′H,3′H)-trione]",2700 nM
10,"C[C@@H]1CN2c3c(cc4c(-c5cn[nH]c5)noc4c3F)CC3(C(=O)NC(=O)NC3=O)[C@H]2[C@H](C)O1 (relative stereo) [Example 64, (2R,4S,4aS)-rel-11-fluoro-2,4-dimethyl-8-(1H-pyrazol-4-yl)-1,2,4,4a-tetrahydro-2′H,6H-spiro[1,4-oxazino[4,3-a][1,2]oxazolo[4,5-g]quinoline-5,5′-pyrimidine]-2′,4′,6′(1′H,3′H)-trione]",800 nM
11,"Cc1nc(-c2noc3c(F)c4c(cc23)CC2(C(=O)NC(=O)NC2=O)[C@H]2[C@H](C)O[C@H](C)CN42)co1 (relative stereo) [Example 65, (2R,4S,4aS)-rel-11-fluoro-2,4-dimethyl-8-(2-methyl-1,3-oxazol-4-yl)-1,2,4,4a-tetrahydro-2′H,6H-spiro[1,4-oxazino[4,3-a][1,2]oxazolo[4,5-g]quinoline-5,5′-pyrimidine]-2′,4′,6′(1′H,3′H)-trione]",1100 nM
12,"Cc1cc(-c2noc3c(F)c4c(cc23)CC2(C(=O)NC(=O)NC2=O)[C@H]2[C@H](C)O[C@H](C)CN42)no1 (relative stereo) [Example 66, (2R,4S,4aS)-rel-11-fluoro-2,4-dimethyl-8-(5-methyl-1,2-oxazol-3-yl)-1,2,4,4a-tetrahydro-2′H,6H-spiro[1,4-oxazino[4,3-a][1,2]oxazolo[4,5-g]quinoline-5,5′-pyrimidine]-2′,4′,6′(1′H,3′H)-trione]",400 nM
13,"Cc1noc(C)c1-c1noc2c(F)c3c(cc12)CC1(C(=O)NC(=O)NC1=O)[C@H]1[C@H](C)O[C@H](C)CN31 (relative stereo) [Example 67, (2R,4S,4aS)-rel-8-(3,5-dimethyl-1,2-oxazol-4-yl)-11-fluoro-2,4-dimethyl-1,2,4,4a-tetrahydro-2′H,6H-spiro[1,4-oxazino[4,3-a][1,2]oxazolo[4,5-g]quinoline-5,5′-pyrimidine]-2′,4′,6′(1′H,3′H)-trione]",3200 nM
14,"C[C@@H]1CN2c3c(cc4c(-c5nccn5C)noc4c3F)CC3(C(=O)NC(=O)NC3=O)[C@@H]2[C@H](C)O1 (relative stereo) [Example 68, (2R,4S,4aR)-rel-11-fluoro-2,4-dimethyl-8-(1-methyl-1H-imidazol-2-yl)-1,2,4,4a-tetrahydro-2′H,6H-spiro[1,4-oxazino[4,3-a][1,2]oxazolo[4,5-g]quinoline-5,5′-pyrimidine]-2′,4′,6′(1′H,3′H)-trione]",700 nM
15,"C[C@@H]1CN2c3c(cc4c(-c5cn(C)cn5)noc4c3F)CC3(C(=O)NC(=O)NC3=O)[C@H]2[C@H](C)O1 (relative stereo) [Example 69, (2R,4S,4aS)-rel-11-fluoro-2,4-dimethyl-8-(1-methyl-1H-imidazol-4-yl)-1,2,4,4a-tetrahydro-2′H,6H-spiro[1,4-oxazino[4,3-a][1,2]oxazolo[4,5-g]quinoline-5,5′-pyrimidine]-2′,4′,6′(1′H,3′H)-trione]",17000 nM
16,"C[C@@H]1CN2c3c(cc4c(-c5cncn5C)noc4c3F)CC3(C(=O)NC(=O)NC3=O)[C@H]2[C@H](C)O1 (relative stereo) [Example 70, (2R,4S,4aS)-rel-11-fluoro-2,4-dimethyl-8-(1-methyl-1H-imidazol-5-yl)-1,2,4,4a-tetrahydro-2′H,6H-spiro[1,4-oxazino[4,3-a][1,2]oxazolo[4,5-g]quinoline-5,5′-pyrimidine]-2′,4′,6′(1′H,3′H)-trione]",500 nM
17,"Cc1ncsc1-c1noc2c(F)c3c(cc12)CC1(C(=O)NC(=O)NC1=O)[C@@H]1[C@@H](C)O[C@@H](C)CN31 (relative stereo) [Example 71, (2R,4S,4aS)-rel-11-fluoro-2,4-dimethyl-8-(4-methyl-1,3-thiazol-5-yl)-1,2,4,4a-tetrahydro-2′H,6H-spiro[1,4-oxazino[4,3-a][1,2]oxazolo[4,5-g]quinoline-5,5′-pyrimidine]-2′,4′,6′(1′H,3′H)-trione]",900 nM
18,"C[C@H]1CN2c3c(cc4c(-c5cccnn5)noc4c3F)CC3(C(=O)NC(=O)NC3=O)[C@@H]2[C@@H](C)O1 (relative stereo) [Example 73, (2R,4S,4aS)-rel-11-fluoro-2,4-dimethyl-8-(pyridazin-3-yl)-1,2,4,4a-tetrahydro-2′H,6H-spiro[1,4-oxazino[4,3-a][1,2]oxazolo[4,5-g]quinoline-5,5′-pyrimidine]-2′,4′,6′(1′H,3′H)-trione]",500 nM
19,"Cc1nsc2c(F)c3c(cc12)CC1(C(=O)NC(=O)NC1=O)[C@H]1[C@H](C)O[C@H](C)CN31 (relative stereo) [Example 75, (2R,4S,4aS)-rel-11-fluoro-2,4,8-trimethyl-1,2,4,4a-tetrahydro-2′H,6H-spiro[1,4-oxazino[4,3-a][1,2]thiazolo[4,5-g]quinoline-5,5′-pyrimidine]-2′,4′,6′(1′H,3′H)-trione]",200 nM
20,"C[C@@H]1CN2c3c(cc4c(-c5nccnc5Cl)noc4c3F)CC3(C(=O)NC(=O)NC3=O)[C@H]2[C@H](C)O1 (relative stereo) [Example 78, (2R,4S,4aS)-rel-8-(3-chloropyrazin-2-yl)-11-fluoro-2,4-dimethyl-2,4,4a,6-tetrahydro-1H,1′H-spiro[isoxazolo[4,5-g][1,4]oxazino[4,3-a]quinoline-5,5′-pyrimidine]-2′,4′,6′(3′H)-trione]",800 nM
